Measurements published in US7119256B2, “Gene encoding acetolactate synthase” (priority 2000, dated 2006).
“And” between values parts separate entries of the source, which are not always exact repeats. Equal values may be shown once.

Key:
W548L mutant ALS = target: T1, W548L mutant ALS (Oryza sativa subsp. japonica, UniProt Q6K2E8, W548L); assay: Herbicide sensitivity of crude ALS with W548L mutation only, 1 mM valine; format: biochemical, rice; details: crude enzyme
T1 construct: one type of cDNA containing a full length ALS gene could be obtained from a cDNA library derived from the wild type; made in house; host or cells: E. coli JM 109, pGEX-2T backbone (pGEX-2T-wALS); crude enzyme solution
Protocol: (§1) A plasmid having W548L mutant ALS gene or a plasmid having S627I mutant ALS gene was transformed into E. coli strain JM 109. The colonies obtained from transformation were subjected to liquid culture, expression of GST induction protein was induced in the same manner as in Examples 4 and 5, a crude enzyme solution was prepared, and then herbicide sensitivity of ALS was examined in the presence of 1 mM valine.

wild type ALS protein = target: T2, wild type ALS protein (Oryza sativa subsp. japonica, UniProt Q6K2E8); assay: Herbicide sensitivity of partially purified wild type ALS protein (acetoin colorimetric ALS activity); format: biochemical, rice (Kinmaze); parameters: the wild type ALS protein was separated and purified in the same manner and used for the experiment; from tissue; host or cells: wild type rice (Kinmaze) cultured cells, liquid culture; ammonium sulfate, Sephadex G-25, HiTrap Q
T2 sequence (Q6K2E8 44-644): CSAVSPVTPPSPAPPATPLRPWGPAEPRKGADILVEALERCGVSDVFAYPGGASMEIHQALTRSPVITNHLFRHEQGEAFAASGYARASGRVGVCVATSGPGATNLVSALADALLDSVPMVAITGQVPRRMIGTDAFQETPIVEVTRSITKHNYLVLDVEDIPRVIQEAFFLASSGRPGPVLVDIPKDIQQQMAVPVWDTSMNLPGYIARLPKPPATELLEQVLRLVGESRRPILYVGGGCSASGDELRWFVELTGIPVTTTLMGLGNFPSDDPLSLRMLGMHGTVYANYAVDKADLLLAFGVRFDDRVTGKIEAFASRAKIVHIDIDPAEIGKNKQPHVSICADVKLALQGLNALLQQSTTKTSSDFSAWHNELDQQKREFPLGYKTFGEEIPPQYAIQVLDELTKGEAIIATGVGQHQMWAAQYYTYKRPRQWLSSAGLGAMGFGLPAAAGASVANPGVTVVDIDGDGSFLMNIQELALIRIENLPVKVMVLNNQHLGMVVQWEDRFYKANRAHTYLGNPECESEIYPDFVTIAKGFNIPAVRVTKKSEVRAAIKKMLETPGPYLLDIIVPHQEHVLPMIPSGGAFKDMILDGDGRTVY

mutant ALS protein [1] = target: mutant ALS protein (Oryza sativa subsp. japonica, UniProt Q6K2E8, S627I/W548L); assay: Herbicide sensitivity of ALS partially purified from the resistant mutant (acetoin colorimetric ALS activity); format: biochemical, rice (Kinmaze); parameters: from tissue; host or cells: resistant mutant rice (Kinmaze) cultured cells, liquid culture; ammonium sulfate, Sephadex G-25, HiTrap Q
Protocol: (§2) First, 200 g or more of resistant mutant was prepared by a liquid culture method (no supplementation with bispyribac-sodium), the culture having a composition as shown in Table 1 but without Gelrite. Then, about 150 g of the resistant mutant was homogenized using Hiscotron in a volume of buffer-1 [100 mM potassium phosphate buffer (pH 7.5) containing 20% (v/v) glycerol, 0.5 mM thiamin pyrophosphate (TPP), 10 μM flavin adenine dinucleotide (FAD), 0.5 mM MgCl2, and a volume of polyvinyl polypyrrolidone one-tenth that of tissue volume] 3-fold greater than tissue volume. The homogenate was filtered through nylon gauze, and then centrifuged at 15,000×g for 20 min. Ammonium sulfate was added to the centrifuged supernatant to 50% saturation, and then allowed to stand in ice for approximately 1 hour. The mixture was again centrifuged at 15,000×g for 20 min, and then the precipitated fraction was dissolved in about 30 ml of buffer-2 [10 mM Tris hydrochloric acid buffer (pH 7.5) containing 20% (v/v) glycerol, 0.5 mM TPP and 0.5 mM MgCl2]. […]
(§3) Next, the protein concentration of the crude enzyme solution was measured by the Bradford method according to the manual of Bio-Rad Protein Assay. […]
(§4) ALS activity resulting from the mutant ALS protein contained in the eluted fractions apportioned into each test tube for apportion was measured as follows. A reaction solution to be used in a measurement reaction was prepared by mixing an eluted fraction to be measured with a solution comprising 20 mM sodium pyruvate, 0.5 mM TPP, 0.5 mM MgCl2, 10 μM FAD and 20 mM potassium phosphate buffer (pH 7.5). […] After the eluted fraction to be measured was added, the measurement reaction was performed at 30° C. for 40 to 60 min. […]
(§5) Then, to quantify acetoin contained in the reaction solution, 1 ml of 0.5% (w/v) creatine and 1 ml of 5% (w/v) α-naphthol dissolved in 2.5 N sodium hydroxide was added to the reaction solution, followed by incubation at 37° C. for 10 min. Acetoin was then quantified by color comparison of the absorbance (at 525 nm) of the reaction solution, thereby evaluating ALS activity. […]

mutant ALS protein [2] = assay: as above; format: biochemical, rice (Kinmaze)
Protocol: as §2, §3, §4, §5

S627I mutant ALS = target: T3, S627I mutant ALS (Oryza sativa subsp. japonica, UniProt Q6K2E8, S627I); assay: Herbicide sensitivity of crude ALS with S627I mutation only, 1 mM valine; format: biochemical, rice; details: crude enzyme
T3 construct: one type of cDNA containing a full length ALS gene could be obtained from a cDNA library derived from the wild type; made in house; host or cells: E. coli JM 109, pGEX-2T backbone; crude enzyme solution
Protocol: as §1

ALS isozyme I = target: T4, ALS isozyme I (Escherichia coli, UniProt P08142+P0ADF8); assay: Inhibition by valine of ALS activity derived from E. coli (no plasmid); format: biochemical
T4 construct: CK1 (without plasmid); endogenous in cells
Protocol: ALS activity resulting from the mutant ALS protein contained in the eluted fractions apportioned into each test tube for apportion was measured as follows. A reaction solution to be used in a measurement reaction was prepared by mixing an eluted fraction to be measured with a solution comprising 20 mM sodium pyruvate, 0.5 mM TPP, 0.5 mM MgCl2, 10 μM FAD and 20 mM potassium phosphate buffer (pH 7.5). One ml of this reaction solution was used. After the eluted fraction to be measured was added, the measurement reaction was performed at 30° C. for 40 to 60 min. Then, the reaction was stopped by addition of 0.1 ml of 6N sulfuric acid (or 0.25 N sodium hydroxide).
The prepared ALS enzyme contains ALS activity derived from E. coli.

[3] = 1 mM Valine, E. coli without plasmid

T4 sequence (P0ADF8 whole entry): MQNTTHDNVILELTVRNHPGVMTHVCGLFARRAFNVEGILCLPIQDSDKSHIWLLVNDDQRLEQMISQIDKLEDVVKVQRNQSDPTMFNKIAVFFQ
T4 sequence (P08142 whole entry): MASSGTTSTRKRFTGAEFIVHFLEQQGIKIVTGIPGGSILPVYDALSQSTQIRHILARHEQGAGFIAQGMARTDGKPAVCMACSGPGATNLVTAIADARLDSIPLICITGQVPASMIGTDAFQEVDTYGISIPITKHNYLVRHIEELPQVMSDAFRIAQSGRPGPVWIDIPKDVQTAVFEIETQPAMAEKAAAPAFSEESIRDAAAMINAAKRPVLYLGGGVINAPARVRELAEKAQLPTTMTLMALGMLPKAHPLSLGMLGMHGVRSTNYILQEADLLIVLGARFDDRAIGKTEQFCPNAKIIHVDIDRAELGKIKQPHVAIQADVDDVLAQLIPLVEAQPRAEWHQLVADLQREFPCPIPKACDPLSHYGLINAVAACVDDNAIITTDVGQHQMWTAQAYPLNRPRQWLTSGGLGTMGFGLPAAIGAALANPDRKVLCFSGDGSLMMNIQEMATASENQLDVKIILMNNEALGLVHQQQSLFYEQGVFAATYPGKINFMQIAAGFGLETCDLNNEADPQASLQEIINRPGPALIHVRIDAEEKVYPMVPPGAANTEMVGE
Chain of mutant ALS protein (Oryza sativa subsp. japonica, UniProt Q6K2E8, S627I/W548L) (Q6K2E8 44-644 W548L/S627I): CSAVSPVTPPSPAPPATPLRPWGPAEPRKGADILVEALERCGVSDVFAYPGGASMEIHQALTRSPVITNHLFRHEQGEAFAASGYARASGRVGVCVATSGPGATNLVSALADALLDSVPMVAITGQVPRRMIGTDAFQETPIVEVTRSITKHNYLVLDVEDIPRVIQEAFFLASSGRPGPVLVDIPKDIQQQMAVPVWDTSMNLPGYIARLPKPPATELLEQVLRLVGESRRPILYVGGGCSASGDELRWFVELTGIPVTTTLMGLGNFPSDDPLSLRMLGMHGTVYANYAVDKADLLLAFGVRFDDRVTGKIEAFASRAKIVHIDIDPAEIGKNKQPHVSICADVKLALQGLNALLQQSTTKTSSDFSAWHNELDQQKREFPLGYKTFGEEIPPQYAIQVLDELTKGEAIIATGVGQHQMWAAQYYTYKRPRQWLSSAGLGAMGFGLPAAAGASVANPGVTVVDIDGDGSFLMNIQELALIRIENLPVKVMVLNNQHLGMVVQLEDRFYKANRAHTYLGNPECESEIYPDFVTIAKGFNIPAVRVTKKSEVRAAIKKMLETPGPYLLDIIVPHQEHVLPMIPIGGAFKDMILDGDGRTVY
T1 sequence (Q6K2E8 44-644 W548L): as the sequence (Q6K2E8 44-644 W548L/S627I) above, with I584S counted along it
T3 sequence (Q6K2E8 44-644 S627I): as the sequence (Q6K2E8 44-644 W548L/S627I) above, with L505W counted along it

| SMILES | resistance imparted by W548L mutation alone (W548L mutant ALS) | IC50 (wild type ALS protein) | IC50 (mutant ALS protein [1]) | RS ratio Resistant mutant: I50 (resistant mutant)/I50 (wild type) (mutant ALS protein [2]) | resistance imparted by S627I mutation alone (S627I mutant ALS) | ALS activity (ALS isozyme I; [3]) | Inhibition rate (ALS isozyme I; [3]) | inhibition at 1000 µM (ALS isozyme I; 1 mM Valine, E. coli without plasmid, read-out: Inhibition rate) | inhibition of ALS activity derived from E. coli (ALS isozyme I; 1 mM valine) |
| --- | --- | --- | --- | --- | --- | --- | --- | --- | --- |
| CC(C)C1(C)N=C(c2nc3ccccc3cc2C(=O)O)NC1=O (stereo not drawn) [Imazaquin, imazaquin] | results were similar to those for bispyribac-sodium | 1.48 µM | 16.7 µM | 11.3 | results were similar to those for bispyribac-sodium | – | – | – | – |
| CC(C)[C@H](N)C(=O)O [Valine, valine] | – | – | – | – | – | 0.1768 OD525/40 min/0.05 ml and 0.1831 OD525/40 min/0.05 ml | 88% | 86% | almost completely inhibited |
